Measurements from US7728146B2, “Enzyme inhibitors” (Probiodrug AG, priority 2006, dated 2010).

Columns and labels:
[1] = target: T1, DP IV (Homo sapiens, UniProt P27487); experiment: DP IV inhibition IC50, parallel-synthesis compounds tested directly following synthesis (without purification); format: biochemical; set-up: IC50 DP4; other: tested directly following parallel synthesis, without purification; compounds of formula (Ib) from parallel synthesis, tested directly following synthesis; details: DP IV inhibition; compounds of formula (Ib) from parallel synthesis, tested directly following synthesis (without purification); read-out: IC50
T1 sequence (P27487 whole entry): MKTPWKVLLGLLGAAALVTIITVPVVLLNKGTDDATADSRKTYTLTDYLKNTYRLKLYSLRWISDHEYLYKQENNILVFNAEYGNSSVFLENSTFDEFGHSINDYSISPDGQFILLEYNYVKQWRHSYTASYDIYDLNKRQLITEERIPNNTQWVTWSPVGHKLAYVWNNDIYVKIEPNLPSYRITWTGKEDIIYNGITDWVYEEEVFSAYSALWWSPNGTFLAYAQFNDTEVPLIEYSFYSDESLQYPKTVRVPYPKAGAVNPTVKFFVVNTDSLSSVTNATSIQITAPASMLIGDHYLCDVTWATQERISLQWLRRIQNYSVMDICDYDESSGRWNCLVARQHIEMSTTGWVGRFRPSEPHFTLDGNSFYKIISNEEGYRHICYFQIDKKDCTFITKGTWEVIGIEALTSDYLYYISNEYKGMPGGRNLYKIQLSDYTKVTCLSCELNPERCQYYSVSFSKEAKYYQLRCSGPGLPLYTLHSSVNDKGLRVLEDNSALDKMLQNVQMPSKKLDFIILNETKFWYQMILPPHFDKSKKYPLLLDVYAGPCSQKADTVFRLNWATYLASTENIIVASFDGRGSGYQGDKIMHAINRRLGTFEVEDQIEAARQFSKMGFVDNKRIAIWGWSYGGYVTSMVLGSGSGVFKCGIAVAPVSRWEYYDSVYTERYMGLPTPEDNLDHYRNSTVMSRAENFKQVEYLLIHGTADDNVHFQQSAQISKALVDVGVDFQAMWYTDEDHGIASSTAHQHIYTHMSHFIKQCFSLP
Outline: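 IC50 came from a 4-parameter fit of residual activity (linear 405 nm slopes for pNA release over ~18 min, relative to solvent-only wells). Gly-Pro-pNA was the substrate, cleaved by porcine kidney or recombinant human DP IV at room temperature in HEPES with 5% DMSO; duplicate 1:2 series started at 100 μM final.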

[2] = target: T1, DP IV; experiment: Ki and inhibition type, DP IV; format: biochemical; details: compounds obtained by preparative synthesis
Procedure: Measurement of DP IV activities for Ki determination is carried out as described for IC50. For Ki determination samples were analysed in triplicates. 7 serial dilutions of the inhibitor (range calculated from the IC50 determination) in water are analyzed with 4 serial dilutions of the substrate.
Data are analysed by non-linear regression to the inhibitor equations using Graphit software. Ki-value and inhibition type are determined using the inhibitor equation (competitive, partiell competitive, non-competitive) which gives the best fitting results. […]

[3] = tested on: liver cell carcinoma cell line Hep-G2; experiment: Cytotoxicity screening and LD50 determination on Hep-G2 (LDH, CytoTox-One); format: cell-based; details: for Cytotox 100 μM (%) HEPG2 / Viability 100 μM (%) HEP-G2: 24 h; for Cytotox 100 μM (%) HEPG2: LDH activity in cell culture media, lysed untreated cells = 100%; for Viability 100 μM (%) HEP-G2: LDH of lysed cells, untreated control = 100%; for Cytotox 100 μM (%) HEPG2 / Viability 100 μM (%) HEP-G2 / cytotoxic effects (summary in words) / Observed cytotox: 100 μM; for cytotoxic effects (summary in words): Hep-G2; for Observed cytotox: Hep-G2, observation of the cells
Procedure: Cytotoxicity of the compounds may be screened using the liver cell carcinoma cell line Hep-G2.
(§1) After 24 h of cultivation in a 96 well plate (50 000 cells/well) compounds (dissolved in DMSO) are added and cytotoxicity and vitality of the cells are analysed after another 24 h of cultivation using the CytoTox-One Homogenoeous membrane toxicity assay (Promega).
Three concentrations (100 μM, 2 μM, 40 nM) of each compound are analysed in triplicates. The final DMSO concentration was 1%.
(§2) For cytotoxicity the LDH activity in the cell culture media after 24 h of incubation are analysed. The untreated control is set to 0% cytotoxicity. For the 100% value LDH activity of lysed untreated cells are analysed.
(§3) For viability cell culture media are removed from the cells and all cells are lysed using the lysis buffer. LDH activity is determined and untreated control is set to 100% viability.
(§4) For determination of LD50 the liver carcinoma cell line HEP-G2 and the neuroblastoma cell line SY5Y may be used. The effect of 8 serial dilutions of the compounds (highest concentration 1 mM) is investigated as described above.
The cytotoxicity of certain example compounds (in each case prepared by preparative synthesis) was screened using Hep-G2 cells. Compounds were tested in concentrations of 100 μM, 2 μM and 40 nM.

[4] = target: dipeptidyl peptidase (DP IV) (UniProt P27487); experiment: Determination of IC50 against DP IV (hydrolysis of Gly-Pro-pNA); format: biochemical, porcine kidney or recombinant human; details: compounds obtained by preparative synthesis
Procedure: Determination of IC50 Against DP IV
Substances are screened for inhibition of dipeptidyl peptidase (DP IV) by their ability to inhibit the hydrolysis of the DP IV specific substrate Glycyl-Prolyl-4-Nitroanilide (Gly-Pro-pNA). All compounds are diluted in DMSO and IC50 will be determined with 11 serial dilutions (1:2) starting with an final concentration of 100 μM. The final DMSO concentration in the assay is 5% (v/v). The method was automated using a Tecan Genesis Freedom liquid handler and a Genius Pro (Tecan) microplate reader.
A stock solution of 0.102 M HEPES is prepared. Ionic strength (I=0.32) is adjusted by KCl and pH (pH 7.6) by KOH.
2.16 mM solution of Gly-Pro-pNA in deionized water is prepared.
All samples are dissolved in DMSO preparing a 10 mM stock solution.
DP IV from porcine kidney (pDP IV) or recombinant human DP IV (rhDP IV) is diluted in HEPES buffer to a final activity of approximately 40-50 μU*ml^−1. The DP IV is stored in a cooling rack (4° C.) on the liquid handler.
The assay may becarried out at room temperature using Freedom liquid handler connected with a Genios Pro microplate reader. Each sample is measured in duplicate. Each sample stock solution is prediluted with DMSO in a ratio of 1:5 in a polypropylen 96-well plate. From this predilution 10 serial (1:2) dilutions in DMSO are prepared. 13.5 μl of the 11 DMSO dilutions and DMSO alone are transferred to the measurement microplate (duplicates) and 86.5 μl water, 100 μl HEPES buffer and 50 μl substrate solution are added to each well. The enzymatic reaction is started by addition of 20 μl enzyme solution to each well, and then the microplate is immediately transferred to the microplate reader.
After short mixing (20 s) the release of 4-Nitroanilin (pNA) is monitored at 405 nm for 30 cycles (approx. 18 min).
Post assay calculations are done by the Magellan (Tecan) and Graphit Software. The linear slopes are calculated for each well and averaged for the duplicates. The residue activities are calculated in relation to a sample containing only solvent instead of inhibitor and expressed in %. Residue activities are plotted against the log of inhibitor concentrations and IC50 is calculated by an 4-parameter fitting ranging from 0 to 100%.

[5] = target: DPII (Homo sapiens, UniProt Q9UHL4); experiment: DPII assay; format: biochemical; details: for Selectivity DPII(IC50)/DPIV(Ki): ratio IC50 DPII / Ki DP IV
Procedure: (§5) Determination of IC50 values for DPII and DP9 are done similarly as described for DP IV.
For DPII instead of the HEPES buffer a 0.2 M sodium acetate buffer pH 5.5 is used. As substrate Gly-Pro-AMC is used in a final concentration of 1 mM.

[6] = target: DP9 (Homo sapiens, UniProt Q86TI2); experiment: DP9 assay; format: biochemical; details: for IC50: Gly Pro-AMC 0.25 mM; for Selectivity DP9(IC50)/DPIV(Ki): ratio IC50 DP9 / Ki DP IV
Sequence of DP9 (Q86TI2 whole entry, species assumed): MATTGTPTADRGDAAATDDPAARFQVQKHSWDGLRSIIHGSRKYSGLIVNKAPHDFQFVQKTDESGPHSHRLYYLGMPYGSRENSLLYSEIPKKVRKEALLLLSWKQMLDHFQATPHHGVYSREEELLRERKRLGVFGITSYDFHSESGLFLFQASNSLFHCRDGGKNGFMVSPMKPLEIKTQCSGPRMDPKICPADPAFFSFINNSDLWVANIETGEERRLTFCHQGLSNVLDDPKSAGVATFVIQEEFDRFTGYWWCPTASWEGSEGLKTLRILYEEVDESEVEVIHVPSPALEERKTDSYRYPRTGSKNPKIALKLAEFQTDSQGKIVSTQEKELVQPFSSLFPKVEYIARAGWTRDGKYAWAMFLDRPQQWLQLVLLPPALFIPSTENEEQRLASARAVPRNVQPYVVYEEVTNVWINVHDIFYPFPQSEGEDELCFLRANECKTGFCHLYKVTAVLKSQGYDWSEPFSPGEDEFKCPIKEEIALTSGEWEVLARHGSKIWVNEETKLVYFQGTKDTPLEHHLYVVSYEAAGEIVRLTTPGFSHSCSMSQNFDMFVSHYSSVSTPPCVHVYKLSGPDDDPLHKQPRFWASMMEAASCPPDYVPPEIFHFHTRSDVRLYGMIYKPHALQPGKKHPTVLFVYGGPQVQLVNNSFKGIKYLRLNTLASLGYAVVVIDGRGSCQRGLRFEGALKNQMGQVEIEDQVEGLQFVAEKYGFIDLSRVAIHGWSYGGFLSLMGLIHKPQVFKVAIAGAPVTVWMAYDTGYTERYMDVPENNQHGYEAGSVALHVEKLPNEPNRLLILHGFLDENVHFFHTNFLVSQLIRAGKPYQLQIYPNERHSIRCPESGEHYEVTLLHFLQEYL
Procedure: as §5
For DP9 Gly Pro-AMC is used as substrate in a final concentration of 0.25 mM.

[7] = tested on: neuroblastoma cell line SY5Y; experiment: LD50 determination on SY5Y (LDH); format: cell-based; details: 8 serial dilutions, highest concentration 1 mM
Procedure: as §1, §2, §3, §4

[8] = sodium acetate buffer pH 5.5, Gly-Pro-AMC 1 mM
[9] = 8 serial dilutions, highest concentration 1 mM

SMILES | IC50 [1] [nM] | Ki [2] [nM] | Cytotox 100 μM (%) HEPG2 [3] [%] | Viability 100 μM (%) HEP-G2 [3] [%] | cytotoxic effects (summary in words) [3] | IC50 [4] [nM] | Selectivity DPII(IC50)/DPIV(Ki) [5] | IC50 [5, 8] [nM] | IC50 [6] [nM] | Selectivity DP9(IC50)/DPIV(Ki) [6] | IC50 ([5]; values >1e−4 are extrapolated values) [nM] | Ki [6] [nM] | Observed cytotox [3] | Ki [5] [nM] | LD50 Viability HEP-G2 [3, 9] [mM] | LD50 cytotox HEP-G2 [3, 9] [mM] | LD50 Viability SY5Y [7] [mM] | LD50 cytotox SY5Y [7] [mM]
CC(C)(C)Cn1cnc(-c2ccc(Cl)cc2Cl)c1CN [Example 11b, C-[5-(2,4-dichloro-phenyl)-3-(2,2-dimethyl-propyl)-3H-imidazol-4-yl]-methylamine] | 6400 | 57.5 | 4.6 | 113.1 | No cytotoxic effects | 2580 | 1,457 | 83800 | – | – | – | – | – | – | – | – | – | –
NCc1c(-c2ccc(Cl)cc2Cl)ncn1CCc1c[nH]c2ccccc12 [Example 1b, C-{5-(2,4-Dichloro-phenyl)-3-[2-(1H-indol-3-yl)-ethyl]-3H-imidazol-4-yl}-methylamine] | 3700 | – | – | – | Strong cytotoxic effects | – | – | – | – | – | – | – | – | – | – | – | – | –
NCc1c(-c2ccc(Cl)cc2Cl)ncn1CCCn1ccnc1 [Example 104b, C-[5-(2,4-dichloro-phenyl)-3-(3-imidazol-1-yl-propyl)-3H-imidazol-4-yl]-methylamine] | 5500 | 30.2 | 2.9 | 104.1 | – | 408 | 9,172 | – | 17500 | 579 | 277000 | – | – | – | – | – | – | –
COc1ccc(Cn2cnc(-c3ccc(Cl)cc3Cl)c2CN)c(OC)c1 [Example 8b, C-[5-(2,4-Dichloro-phenyl)-3-(2,4-dimethoxy-benzyl)-3H-imidazol-4-yl]-methylamine] | 12700 | – | – | – | No cytotoxic effects | – | – | – | – | – | – | – | – | – | – | – | – | –
NCc1c(-c2ccc(Cl)cc2Cl)ncn1CCc1ccccc1Cl [Example 21b, C-[3-[2-(2-chloro-phenyl)-ethyl]-5-(2,4-dichloro-phenyl)-3H-imidazol-4-yl]-methylamine] | 1900 | 29.4 | 97.1 | 9.8 | – | 514 | 157 | 4620 | 1280 | 44 | – | 925 | 100% lysis | 3180 | – | – | – | –
NCc1c(-c2ccc(Cl)cc2Cl)ncn1Cc1ccccc1OC(F)(F)F [Example 129b, C-[5-(2,4-dichloro-phenyl)-3-(2-trifluoromethoxy-benzyl)-3H-imidazol-4-yl]-methylamine] | – | 6.54 | – | – | – | 70 | 237 | 1550 | 53200 | 8,135 | – | – | – | 4420 | 0.15 | 0.16 | 0.13 | 0.21
NCc1c(-c2ccc(Cl)cc2Cl)ncn1Cc1ccc2c(c1)OCO2 [Example 125b, C-[3-benzo[1,3]dioxol-5-ylmethyl-5-(2,4-dichloro-phenyl)-3H-imidazol-4-yl]-methylamine] | – | 38 | 10.6 | 88.9 | – | 371 | 471 | 17900 | 74700 | 1,966 | – | – | – | – | – | – | – | –
NCc1c(-c2ccc(Cl)cc2Cl)ncn1CCCCCO [Example 38b, 5-[5-aminomethyl-4-(2,4-dichloro-phenyl)-imidazol-1-yl]-pentan-1-ol] | 1900 | 41.1 | 0 | 106.7 | – | 848 | 1,474 | 60600 | 46500 | 1,131 | – | – | – | – | – | – | – | –
CC(N)c1c(-c2ccc(Cl)cc2Cl)ncn1CCc1ccccc1 (stereo not shown) [Example 2b, 1-[5-(2,4-Dichloro-phenyl)-3-phenethyl-3H-imidazol-4-yl]-ethylamine] | 32500 | – | – | – | No cytotoxic effects | – | – | – | – | – | – | – | – | – | – | – | – | –
Cc1ccccc1Cn1cnc(-c2ccc(Cl)cc2Cl)c1C(C)N (stereo not shown) [Example 15b, 1-[5-(2,4-Dichloro-phenyl)-3-(2-methyl-benzyl)-3H-imidazol-4-yl]-ethylamine] | 19000 | – | – | – | No cytotoxic effects | – | – | – | – | – | – | – | – | – | – | – | – | –
CC(C)(C)CCn1cnc(-c2ccc(Cl)cc2Cl)c1CN [Example 23b, C-[5-(2,4-dichloro-phenyl)-3-(3,3-dimethyl-butyl)-3H-imidazol-4-yl]-methylamine] | 8200 | 23.6 | 56.8 | 98.6 | – | 903 | – | – | 56100 | 2,377 | – | – | 50% lysis, 100% | – | – | – | – | –
